# Test results as given in the supplement of paper PMC10307832.
# What was measured:
# Test in all cases: relative viability (nuclei count vs DMSO), 5 days (fraction); higher = more cells survive
# SK-MES-1 = tested on: SK-MES-1
# In short: (§1)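 Five library-drug doses in √10 steps were combined with a fixed anchor-drug dose, or a single drug was given alone, by pin tool to lung cancer cell lines in 1536-well plates the day after seeding. Nuclei were stained and counted after 5 days. Relative viability is the nuclei count in treated wells over that in vehicle wells, taken as the median of duplicate plates.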
# EMC-BAC-2 = tested on: EMC-BAC-2
# In short: as §1
# RERF-LC-KJ = tested on: RERF-LC-KJ
# In short: as §1
# NCI-H2087 = tested on: NCI-H2087
# In short: as §1
# HARA = tested on: HARA
# In short: as §1
# NCI-H2126 = tested on: NCI-H2126
# In short: as §1
# LXF-289 = tested on: LXF-289
# In short: as §1
# UMC-11 = tested on: UMC-11
# In short: as §1
# HCC-78 = tested on: HCC-78
# In short: as §1
# HOP-62 = tested on: HOP-62
# In short: as §1
# SW 900 = tested on: SW 900
# In short: as §1
# LOU-NH91 = tested on: LOU-NH91
# In short: as §1
# NCI-H1993 = tested on: NCI-H1993
# In short: as §1
# NCI-H650 = tested on: NCI-H650
# In short: as §1
# LU99A = tested on: LU99A
# In short: as §1
# BEN = tested on: BEN
# In short: as §1
# NCI-H1395 = tested on: NCI-H1395
# In short: as §1
# NCI-H1563 = tested on: NCI-H1563
# In short: as §1
# NCI-H2170 = tested on: NCI-H2170
# In short: as §1
# 201T = tested on: 201T
# In short: as §1
# LC-2-ad = tested on: LC-2-ad
# In short: as §1
# H3255 = tested on: H3255
# In short: as §1
# COR-L 105 = tested on: COR-L 105
# In short: as §1
smiles,measurement,setting,value
Cc1cn(-c2cc(NC(=O)c3ccc(C)c(Nc4nccc(-c5cccnc5)n4)c3)cc(C(F)(F)F)c2)cn1 [Nilotinib] + COc1cccc2cc(-c3nc([C@H]4CC[C@H](C(=O)O)CC4)n4ncnc(N)c34)[nH]c12 [OSI-027] (partner 0.5 µM),relative viability,SK-MES-1; first compound 0.001 µM,0.474
same,relative viability,SK-MES-1; first compound 0.003162 µM,0.544
same,relative viability,SK-MES-1; first compound 0.01 µM,0.662
same,relative viability,SK-MES-1; first compound 0.03162 µM,0.342
same,relative viability,SK-MES-1; first compound 0.1 µM,0.327
same,relative viability,EMC-BAC-2; first compound 0.001 µM,0.348
same,relative viability,EMC-BAC-2; first compound 0.003162 µM,0.387
same,relative viability,EMC-BAC-2; first compound 0.01 µM,0.426
same,relative viability,EMC-BAC-2; first compound 0.03162 µM,0.345
same,relative viability,EMC-BAC-2; first compound 0.1 µM,0.354
same,relative viability,RERF-LC-KJ; first compound 0.001 µM,0.501
same,relative viability,RERF-LC-KJ; first compound 0.003162 µM,0.586
same,relative viability,RERF-LC-KJ; first compound 0.01 µM,0.53
same,relative viability,RERF-LC-KJ; first compound 0.03162 µM,0.438
same,relative viability,RERF-LC-KJ; first compound 0.1 µM,0.374
same,relative viability,NCI-H2087; first compound 0.001 µM,0.477
same,relative viability,NCI-H2087; first compound 0.003162 µM,0.557
same,relative viability,NCI-H2087; first compound 0.01 µM,0.499
same,relative viability,NCI-H2087; first compound 0.03162 µM,0.221
same,relative viability,NCI-H2087; first compound 0.1 µM,0.239
same,relative viability,HARA; first compound 0.001 µM,0.523
same,relative viability,HARA; first compound 0.003162 µM,0.633
same,relative viability,HARA; first compound 0.01 µM,0.469
same,relative viability,HARA; first compound 0.03162 µM,0.179
same,relative viability,HARA; first compound 0.1 µM,0.231
same,relative viability,NCI-H2126; first compound 0.001 µM,0.673
same,relative viability,NCI-H2126; first compound 0.003162 µM,0.706
same,relative viability,NCI-H2126; first compound 0.01 µM,0.572
same,relative viability,NCI-H2126; first compound 0.03162 µM,0.582
same,relative viability,NCI-H2126; first compound 0.1 µM,0.544
same,relative viability,LXF-289; first compound 0.001 µM,0.807
same,relative viability,LXF-289; first compound 0.003162 µM,0.965
same,relative viability,LXF-289; first compound 0.01 µM,0.94
same,relative viability,LXF-289; first compound 0.03162 µM,0.826
same,relative viability,LXF-289; first compound 0.1 µM,0.532
same,relative viability,UMC-11; first compound 0.001 µM,0.482
same,relative viability,UMC-11; first compound 0.003162 µM,0.527
same,relative viability,UMC-11; first compound 0.01 µM,0.432
same,relative viability,UMC-11; first compound 0.1 µM,0.246
same,relative viability,HCC-78; first compound 0.001 µM,0.444
same,relative viability,HCC-78; first compound 0.003162 µM,0.368
same,relative viability,HCC-78; first compound 0.01 µM,0.352
same,relative viability,HCC-78; first compound 0.03162 µM,0.373
same,relative viability,HCC-78; first compound 0.1 µM,0.403
same,relative viability,HOP-62; first compound 0.001 µM,0.699
same,relative viability,HOP-62; first compound 0.003162 µM,0.831
same,relative viability,HOP-62; first compound 0.01 µM,0.909
same,relative viability,HOP-62; first compound 0.03162 µM,0.581
same,relative viability,HOP-62; first compound 0.1 µM,0.559
same,relative viability,SW 900; first compound 0.001 µM,0.46
same,relative viability,SW 900; first compound 0.003162 µM,0.492
same,relative viability,SW 900; first compound 0.01 µM,0.595
same,relative viability,SW 900; first compound 0.03162 µM,0.354
same,relative viability,SW 900; first compound 0.1 µM,0.465
same,relative viability,LOU-NH91; first compound 0.001 µM,0.687
same,relative viability,LOU-NH91; first compound 0.003162 µM,0.728
same,relative viability,LOU-NH91; first compound 0.01 µM,0.736
same,relative viability,LOU-NH91; first compound 0.03162 µM,0.67
same,relative viability,LOU-NH91; first compound 0.1 µM,0.727
same,relative viability,NCI-H1993; first compound 0.001 µM,0.547
same,relative viability,NCI-H1993; first compound 0.003162 µM,0.551
same,relative viability,NCI-H1993; first compound 0.01 µM,0.536
same,relative viability,NCI-H1993; first compound 0.03162 µM,0.487
same,relative viability,NCI-H1993; first compound 0.1 µM,0.562
same,relative viability,NCI-H650; first compound 0.001 µM,0.406
same,relative viability,NCI-H650; first compound 0.003162 µM,0.526
same,relative viability,NCI-H650; first compound 0.01 µM,0.486
same,relative viability,NCI-H650; first compound 0.03162 µM,0.441
same,relative viability,NCI-H650; first compound 0.1 µM,0.362
same,relative viability,LU99A; first compound 0.001 µM,0.272
same,relative viability,LU99A; first compound 0.003162 µM,0.304
same,relative viability,LU99A; first compound 0.01 µM,0.256
same,relative viability,LU99A; first compound 0.03162 µM,0.313
same,relative viability,LU99A; first compound 0.1 µM,0.273
same,relative viability,BEN; first compound 0.001 µM,0.295
same,relative viability,BEN; first compound 0.003162 µM,0.285
same,relative viability,BEN; first compound 0.01 µM,0.348
same,relative viability,BEN; first compound 0.03162 µM,0.283
same,relative viability,BEN; first compound 0.1 µM,0.277
same,relative viability,NCI-H1395; first compound 0.001 µM,0.673
same,relative viability,NCI-H1395; first compound 0.003162 µM,0.467
same,relative viability,NCI-H1395; first compound 0.01 µM,0.579
same,relative viability,NCI-H1395; first compound 0.03162 µM,0.612
same,relative viability,NCI-H1395; first compound 0.1 µM,0.416
same,relative viability,NCI-H1563; first compound 0.001 µM,0.72
same,relative viability,NCI-H1563; first compound 0.003162 µM,0.731
same,relative viability,NCI-H1563; first compound 0.01 µM,0.681
same,relative viability,NCI-H1563; first compound 0.03162 µM,0.74
same,relative viability,NCI-H1563; first compound 0.1 µM,0.666
same,relative viability,NCI-H2170; first compound 0.001 µM,0.662
same,relative viability,NCI-H2170; first compound 0.003162 µM,0.589
same,relative viability,NCI-H2170; first compound 0.01 µM,0.832
same,relative viability,NCI-H2170; first compound 0.03162 µM,0.828
same,relative viability,NCI-H2170; first compound 0.1 µM,0.563
same,relative viability,201T; first compound 0.001 µM,0.734
same,relative viability,201T; first compound 0.003162 µM,0.666
same,relative viability,201T; first compound 0.01 µM,0.77
same,relative viability,201T; first compound 0.03162 µM,0.317
same,relative viability,201T; first compound 0.1 µM,0.667
same,relative viability,LC-2-ad; first compound 0.001 µM,0.739
same,relative viability,LC-2-ad; first compound 0.003162 µM,0.909
same,relative viability,LC-2-ad; first compound 0.01 µM,0.795
same,relative viability,LC-2-ad; first compound 0.03162 µM,0.728
same,relative viability,LC-2-ad; first compound 0.1 µM,0.472
same,relative viability,H3255; first compound 0.001 µM,0.547
same,relative viability,H3255; first compound 0.003162 µM,0.566
same,relative viability,H3255; first compound 0.03162 µM,0.501
same,relative viability,H3255; first compound 0.1 µM,0.621
same,relative viability,COR-L 105; first compound 0.001 µM,0.831
same,relative viability,COR-L 105; first compound 0.003162 µM,0.683
same,relative viability,COR-L 105; first compound 0.01 µM,0.741
same,relative viability,COR-L 105; first compound 0.03162 µM,0.577
same,relative viability,COR-L 105; first compound 0.1 µM,0.586
